Test results: PMC3917282, “Alkaloids from the Mangrove-Derived Actinomycete Jishengella endophytica 161111” (Marine Drugs, 2014)
Values after ≈ are worked out from the molar mass of the structure shown. Where two headings read alike, the source gives them in different places.

Tests used:
[1] = test system: influenza virus (A/Puerto Rico/8/34 (H1N1), PR/8); assay: organism not typed; format: cell-based; conditions: for IC50: read-out: IC50 against H1N1 (CPE inhibition); for selectivity index (SI): H1N1 IC50 and MDCK CC50
in vitro = conditions: dog
[2] = MDCK cells infected with A/Puerto Rico/8/34 (H1N1), 48 h post-infection, crystal violet staining

| Compound | IC50 [1, 2] | also measured |
| --- | --- | --- |
| O=Cc1ccc2n1[C@@H](Cc1ccccc1)C(=O)OC2 [Compound 6, (S)-4-benzyl-3-oxo-3,4-dihydro-1H-pyrrolo[2,1-c][1,4]oxazine-6-carbaldehyde] | > 50 µg/mL |  |
| O=Cc1c[nH]c2ccccc12 [Compound 11, 1H-indole-3-carboxaldehyde] | 45.9 µg/mL (≈ 316 µM) | selectivity index (SI) [1]: 11.4; CC50 at 36 h (in vitro): 522 ± 24.5 µg/mL (≈ 3600 µM) |
| OC[C@H](O)[C@@H](O)Cc1cncc(-c2ccco2)n1 [Compound 1, 2-(furan-2-yl)-6-(2S,3S,4-trihydroxybutyl)pyrazine] | > 50 µg/mL |  |
| Oc1nccc2c1[nH]c1ccccc12 [Compound 9, 1-hydroxy-β-carboline] | 25 µg/mL (≈ 136 µM) | selectivity index (SI) [1]: 16.1; CC50 at 36 h (in vitro): 403 ± 31.4 µg/mL (≈ 2190 µM) |
| OCc1ccc(-c2nccc3c2[nH]c2ccccc23)o1 [Compound 8, perlolyrine] | 38.3 µg/mL (≈ 145 µM) | selectivity index (SI) [1]: 3.0; CC50 at 36 h (in vitro): 116 ± 12.1 µg/mL (≈ 440 µM) |
| (4S)-4-(2-methylbutyl)-3-oxo-3,4-dihydro-1H-pyrrolo[2,1-c][1,4]oxazine-6-carbaldehyde [Compound 5] |  | IC50 against H1N1 (CPE inhibition) [1, 2]: > 50 µg/mL |
| CC(C)C[C@H]1C(=O)OCc2ccc(C=O)n21 [Compound 3, (S)-4-isobutyl-3-oxo-3,4-dihydro-1H-pyrrolo[2,1-c][1,4]oxazine-6-carbaldehyde] | > 50 µg/mL |  |
| OC[C@H](O)[C@@H](O)Cc1cnc(-c2ccco2)cn1 [Compound 2, 2-(furan-2-yl)-5-(2S,3S,4-trihydroxybutyl)pyrazine] | > 50 µg/mL |  |
| O=C(O)c1cc2c([nH]c3ccccc32)c(-c2ccc(CO)o2)n1 [Compound 7, flazin] | > 50 µg/mL |  |
| NC(=O)c1ncn([C@@H]2O[C@H](CO)[C@@H](O)[C@H]2O)n1 [Ribavirin, ribavirin, reference compound] | 23.1 µg/mL (≈ 94.6 µM) | selectivity index (SI) [1]: 32.2; CC50 at 36 h (in vitro): 744 ± 18.5 µg/mL (≈ 3050 µM) |
| O=C(CO)c1c[nH]c2ccccc12 [Compound 12, 2-hydroxy-1-(1H-indol-3-yl)ethanone] | > 50 µg/mL |  |
| COCc1ccc(C=O)[nH]1 [Compound 13, 5-(methoxymethyl)-1H-pyrrole-2-carbaldehyde] | > 50 µg/mL |  |
| Cc1cc2nc3[nH]c(=O)[nH]c(=O)c3nc2cc1C [Compound 10, lumichrome] |  | IC50 ([1]; MDCK, 48 h): 39.7 µg/mL (≈ 164 µM) |
| CC(C)[C@H]1C(=O)OCc2ccc(C=O)n21 [Compound 4, (S)-4-isopropyl-3-oxo-3,4-dihydro-1H-pyrrolo[2,1-c][1,4]oxazine-6-carbaldehyde] | > 50 µg/mL |  |
